Assay results from patent US20190315823A1, “SMALL CATIONIC ANTI-BIOFILM AND IDR PEPTIDES” (priority 2013, published 2019).
Several values for one entry are separate records, joined by “and”; a condition that tells them apart may be missing. Equal values may be shown once. Read-outs that look alike come from different tables or passages of the source. Ends that are not written are not given here. Peptide text beside a SMILES is read from it.

What was measured:
E. coli biofilms = assay: checkerboard titration biofilm synergy (MBIC, FIC); type: cell-based; conditions: for MBIC: compound alone; for Fold decrease in antibiotic concentration: in the presence of peptide 1018; for Fold decrease in antibiotic concentration / antibiotic MIC: in the presence of peptide DJK5
Procedure: (§1) Peptides and various conventional antibiotics were analyzed by checkerboard titration into microtiter trays using CLSI methods (Wiegand, I., K. Hilpert, and R. E. W. Hancock. 2008. Nature Protocols 3:163-175), bacteria added and, after overnight incubation at 37° C., the residual biofilm assessed by the crystal violet method mentioned in the body of the grant, with an A595 of 0.2 considered as 100% biofilm inhibition. The effects of the peptide in reducing the minimal biofilm inhibitory concentration (MBIC) of the antibiotic and vice versa were assessed using the Fractional Inhibitory Concentration (FIC) method whereby ΣFTC=FICA+FICB=(CA/MICA)+(CB/MICB), where MBICA and MBICB are the MBICs of peptide A and antibiotic B alone, respectively, and CA and CB (expressed in μg/ml) are the MICs of the drugs in combination. This conventional clinical microbiology assay is interpreted as follows

S. aureus biofilms = assay: checkerboard titration biofilm synergy (MBIC, FIC); type: cell-based; conditions: for MBIC: compound alone; for Fold decrease in antibiotic concentration / antibiotic MIC: in the presence of peptide DJK5
Procedure: as §1

Salmonella biofilm = assay: checkerboard titration biofilm synergy (FIC); type: cell-based; conditions: for Fold decrease in antibiotic MIC in the presence of peptide: peptide DJK5
Procedure: as §1

K. pneumoniae biofilm = assay: checkerboard titration biofilm synergy (FIC); type: cell-based; conditions: for Fold decrease in antibiotic MIC in the presence of peptide: peptide DJK5
Procedure: as §1

A. baumannii biofilm = assay: checkerboard titration biofilm synergy (FIC); type: cell-based; conditions: for Fold decrease in antibiotic MIC in the presence of peptide: peptide DJK5
Procedure: as §1

P. aeruginosa biofilms = conditions: P. aeruginosa biofilm
Procedure: as §1

[1] = system: human peripheral blood mononuclear cells (MCP-1); assay: MCP-1 chemokine production by ELISA; type: cell-based
Procedure: FIG. 19. High production of anti-infective chemokine MCP-1 by human peripheral blood mononuclear cells treated with peptides, as determined by ELISA after 24 hours of stimulation.
Venous blood (20 ml) from healthy volunteers was collected in Vacutainer® collection tubes containing sodium heparin as an anticoagulant (Becton Dickinson, Mississauga, ON) in accordance with UBC ethical approval and guidelines. Blood was diluted 1:1 with complete RPMI 1640 medium and separated by centrifugation over a Ficoll-Paque® Plus (Amersham Biosciences, Piscataway, N.J., USA) density gradient. White blood cells were isolated from the buffy coat, washed twice in RPMI 1640 complete medium, and the number of peripheral blood mononuclear cells (PBMC) was determined by Trypan blue exclusion. PBMC (5×10^5) were seeded into 12-well tissue culture dishes (Falcon; Becton Dickinson) at 0.75 to 1×10^6 cells/ml at 37° C. in 5% CO2. The above conditions were chosen to mimic conditions for circulating blood monocytes entering tissues at the site of infection via extravasation.
Following incubation of the cells under various treatment regimens, the tissue culture supernatants were centrifuged at 1000×g for 5 min, then at 10,000×g for 2 min to obtain cell-free samples. Supernatants were aliquoted and then stored at −20° C. prior to assay for various chemokines by capture ELISA (eBioscience and BioSource International Inc., CA, USA respectively)

[2] = system: Pseudomonas aeruginosa (Pa) biofilm; assay: static abiotic solid surface (microtiter, crystal violet) / Bioflux biofilm inhibition screen; type: cell-based; conditions: Pa) biofilm, 10 μg/ml
Procedure: FIG. 1. Identification of new anti-biofilm peptides active against P. aeruginosa using the microtiter plate screening method with crystal violet staining. […] As a control peptide 1037 was utilized [de la Fuente Nunez et al. 2011].
Methods of assessment of anti-biofilm activity—Biofilm formation was initially analyzed using a static abiotic solid surface assay as described elsewhere (de la Fuente-Nunez et al., 2012). Dilutions (1/100) of overnight cultures were incubated in BM2 biofilm-adjusted medium [62 mM potassium phosphate buffer (pH 7), 7 mM (NH4)2SO4, 2 mM MgSO4, 10 μM FeSO4, 0.4% (wt/vol) glucose, 0.5% (wt/vol) Casamino Acids], or a nutrient medium such as Luria Broth, in polypropylene microtiter plates (Falcon, United States) in the absence (control) or presence of peptide. Peptide was added at time zero (prior to adding the diluted, overnight cultures) in varying concentrations, and the decrease in biofilm formation was recorded at 22-46 h for most bacteria. Planktonic cells were removed, biofilm cells adhering to the side of the tubes were stained with crystal violet, and absorbance at 595 nm was measured using a microtiter plate reader (Bio-Tek Instruments Inc., United States). Some peptides were screened against two Gram negative organisms, P. aeruginosa and K. pneumoniae using a Bioflux apparatus (AutoMate Scientific, Berkeley, Calif.; http://www.autom8.com/bioflux_biofilm.html), which allows for the high-throughput, real-time analysis of biofilms.

[3] = system: methicillin resistant S. aureus (Sa) biofilm; type: cell-based, Staphylococcus aureus; conditions: peptide 5 μg/ml
[4] = antibiotic in combination with peptide 1018
[5] = antibiotic in combination with peptide DJK5
[6] = in combination with peptide 1018
[7] = in combination with peptide DJK5
[8] = in the presence of peptide 1018

Row | Compound | FIC (E. coli biofilms; [4]) | FIC (E. coli biofilms; [5]) | MBIC (E. coli biofilms) [µg/mL] | concentration of antibiotic at FIC (E. coli biofilms; [6]) [µg/mL] | concentration of antibiotic at FIC (E. coli biofilms; [7]) [µg/mL] | Fold decrease in antibiotic concentration (E. coli biofilms) [X] | Fold decrease in antibiotic concentration / antibiotic MIC (E. coli biofilms) [X] | FIC (S. aureus biofilms; [4]) | FIC (S. aureus biofilms; [5]) | MBIC (S. aureus biofilms) [µg/mL] | concentration of antibiotic at FIC (S. aureus biofilms; [6]) | concentration of antibiotic at FIC (S. aureus biofilms; [7]) [µg/mL] | Fold decrease in antibiotic concentration (S. aureus biofilms; [8]) [X] | Fold decrease in antibiotic concentration / antibiotic MIC (S. aureus biofilms) [X] | FIC (Salmonella biofilm; [4]) | FIC (Salmonella biofilm; [5]) | Fold decrease in antibiotic MIC in the presence of peptide (Salmonella biofilm) [X] | FIC (K. pneumoniae biofilm; [4]) | FIC (K. pneumoniae biofilm; [5]) | Notes (IDR immunomodulatory activity) [1] | other results
1 | CC(C)(O/N=C(\C(=O)N[C@@H]1C(=O)N2C(C(=O)[O-])=C(C[n+]3ccccc3)CS[C@H]12)c1csc(N)n1)C(=O)O [Ceftazidime] | 1 | 0.542 and 0.54 | 0.4 | 0.1 | 0.2 | 4 | 2 | 0.16 | 0.375 and 0.38 | 256 | 8-8 μg/ml | 32 | 32 | 8 | 0.31 | 0.75 | 4 | 0.75 | 0.89 | – | FIC (S. aureus biofilms; antibiotic in combination with peptide DJK6): 0.4; Fold decrease in antibiotic concentration (S. aureus biofilms; in the presence of peptide DJK6): 8; Fold decrease in antibiotic MIC in the presence of peptide (K. pneumoniae biofilm): 16X; FIC (A. baumannii biofilm; [4]): 0.37; FIC (A. baumannii biofilm; [5]): 0.75; Fold decrease in antibiotic MIC in the presence of peptide (A. baumannii biofilm): 2X; FIC (P. aeruginosa biofilms; [4]): 0.38; FIC (P. aeruginosa biofilms; [5]): 0.51 and 0.5; Concentration of antibiotic at the FIC (P. aeruginosa biofilms; [6]): 1.4 µg/mL; Concentration of antibiotic at the FIC (P. aeruginosa biofilms; [7]): 0.8 µg/mL
2 | CC[C@H](C)[C@H](NC(=O)[C@H](CCCNC(=N)N)NC(=O)[C@H](C)NC(=O)[C@@H](NC(=O)[C@H](CCCNC(=N)N)NC(=O)[C@H](C)NC(=O)[C@H](Cc1c[nH]c2ccccc12)NC(=O)[C@H](CCCNC(=N)N)NC(=O)[C@@H](N)C(C)C)C(C)C)C(=O)N[C@@H](CC(C)C)C(=O)N[C@@H](CCCNC(=N)N)C(=O)N[C@H](C(N)=O)C(C)C [HE3] (H-VRWARVARILRV-NH2; N-terminus assumed) | – | – | – | – | – | – | – | – | – | – | – | – | – | – | – | – | – | – | – | Weaker activity than 1018 | –
3 | C[C@@H](O)[C@H]1C(=O)N2C(C(=O)O)=C(SCCN=CN)C[C@H]12 [Imipenem] | 0.75 | 1 | 6.4 | 1.6 | 0.1 | 4 | 64 | 0.25 | 0.52 | >102.4 | 25.6 µg/mL | 3.2 | 4 | 32 | 1 | 1 | 2 | 0.53 | 1 | – | Fold decrease in antibiotic MIC in the presence of peptide (K. pneumoniae biofilm): 64X; FIC (A. baumannii biofilm; [4]): 0.53; FIC (A. baumannii biofilm; [5]): 0.75; Fold decrease in antibiotic MIC in the presence of peptide (A. baumannii biofilm): 2X; FIC (P. aeruginosa biofilms; [4]): 0.502 and 0.5; FIC (P. aeruginosa biofilms; [5]): 0.51 and 0.5; Concentration of antibiotic at the FIC (P. aeruginosa biofilms; [6]): 0.8 µg/mL; Concentration of antibiotic at the FIC (P. aeruginosa biofilms; [7]): 0.8 µg/mL
4 | CC[C@H](C)[C@H](N)C(=O)N[C@@H](CC(C)C)C(=O)N1CCC[C@H]1C(=O)N[C@@H](Cc1c[nH]c2ccccc12)C(=O)N[C@@H](CCCCN)C(=O)N[C@@H](Cc1c[nH]c2ccccc12)C(=O)N1CCC[C@H]1C(=O)N[C@@H](Cc1c[nH]c2ccccc12)C(=O)N[C@@H](Cc1c[nH]c2ccccc12)C(=O)N1CCC[C@H]1C(=O)N[C@@H](Cc1c[nH]c2ccccc12)C(=O)N[C@@H](CCCNC(=N)N)C(=O)N[C@@H](CCCNC(=N)N)C(N)=O [Indolicidin, reference compound] | – | – | – | – | – | – | – | – | – | – | – | – | – | – | – | – | – | – | – | – | % Biofilm Inhibition Pa [2]: 29%; % Biofilm Inhibition Sa [3]: 48%
5 | CC[C@H](C)[C@H](N)C(=O)N[C@@H](CC(C)C)C(=O)N[C@@H](CCCCN)C(=O)N[C@@H](CCCCN)C(=O)N[C@@H](Cc1c[nH]c2ccccc12)C(=O)N1CCC[C@H]1C(=O)N[C@@H](Cc1c[nH]c2ccccc12)C(=O)N[C@@H](Cc1c[nH]c2ccccc12)C(=O)N1CCC[C@H]1C(=O)N[C@@H](Cc1c[nH]c2ccccc12)C(=O)N[C@@H](CCCNC(=N)N)C(=O)N[C@@H](CCCNC(=N)N)C(=O)N[C@@H](CCCCN)C(N)=O [Peptide 11CN] (H-ILKKWPWWPWRRK-NH2; N-terminus assumed) | – | – | – | – | – | – | – | – | – | – | – | – | – | – | – | – | – | – | – | – | % Biofilm Inhibition Sa [3]: 32%
6 | NC[C@H]1O[C@H](O[C@H]2[C@H](O)[C@@H](O[C@H]3O[C@H](CO)[C@@H](O)[C@H](N)[C@H]3O)[C@H](N)C[C@@H]2N)[C@H](N)C[C@@H]1O [Tobramycin] | 0.375 and 0.38 | 0.5625 and 0.56 | 6.4 | 1.6 | 0.4 | 4 | 16 | 0.52 and 0.5 | 1 | >102.4 | 1.6 µg/mL | 1.6 | 64 | 64 | 0.75 | 1.03 | 32 | 0.31 | 0.75 | – | Fold decrease in antibiotic MIC in the presence of peptide (K. pneumoniae biofilm): 4X; FIC (A. baumannii biofilm; [4]): 0.38; FIC (A. baumannii biofilm; [5]): 0.56; Fold decrease in antibiotic MIC in the presence of peptide (A. baumannii biofilm): 16X; FIC (P. aeruginosa biofilms; [4]): 0.502 and 0.5; FIC (P. aeruginosa biofilms; [5]): 0.51 and 0.5; Concentration of antibiotic at the FIC (P. aeruginosa biofilms; [6]): 1.6 µg/mL; Concentration of antibiotic at the FIC (P. aeruginosa biofilms; [7]): 1.6 µg/mL
7 | RVLIRVARRVIW (RVLIRVARRVIW-NH2) [HE9] | – | – | – | – | – | – | – | – | – | – | – | – | – | – | – | – | – | – | – | Weaker activity than 1018 | –
8 | VRFRIWRR (VRFRIWRR-NH2) [EH2] | – | – | – | – | – | – | – | – | – | – | – | – | – | – | – | – | – | – | – | Weaker activity than 1018 | –
9 | VRLIRVWRVIRK (VRLIRVWRVIRK-NH2) [HE7] | – | – | – | – | – | – | – | – | – | – | – | – | – | – | – | – | – | – | – | No secretion of MCP-1 | –
10 | VRRIWRR (VRRIWRR-NH2) [EH1] | – | – | – | – | – | – | – | – | – | – | – | – | – | – | – | – | – | – | – | Weaker activity than 1018 | –
